The structures appear in SMILES notation. “And” between values parts separate entries of the source, which are not always exact repeats. Equal entries are not always repeated. Some results are limits rather than exact numbers.

The target in assay [1] is Metabotropic glutamate receptor 2 (Rattus norvegicus, UniProt P31421). In words: Concentration for half maximal activation of metabotropic glutamate mGluR2 in rat.
The target of assay [2] is Metabotropic glutamate receptor 2 (Homo sapiens, UniProt Q14416). Put plainly: Concentration for half maximal activation of metabotropic glutamate mGluR2 in human.
Assay [3] addresses T1, Metabotropic glutamate receptor 1 (Rattus norvegicus, UniProt P23385). Put plainly: Concentration for half maximal activation of metabotropic glutamate mGluR1a in rat.
Assay [4] has as its target Metabotropic glutamate receptor 4 (Rattus norvegicus, UniProt P31423). In words: Concentration for half maximal activation of metabotropic glutamate mGluR4a in rat.
In assay [5] the target is Metabotropic glutamate receptor 3 (Rattus norvegicus, UniProt P31422). In words: Concentration for half maximal activation of metabotropic glutamate mGluR3 in rat.
Assay [6] deals with Metabotropic glutamate receptor 7 (Homo sapiens, UniProt Q14831). In words: Concentration for half maximal activation of metabotropic glutamate mGluR7 in human.
The target of assay [7] is T1, Metabotropic glutamate receptor 1. In words: Concentration for half maximal activation of metabotropic glutamate mGluR1c in rat.
Assay [8] deals with Metabotropic glutamate receptor 7 (Rattus norvegicus, UniProt P35400). In words: Concentration for half maximal activation of metabotropic glutamate mGluR7 in rat.
The target in assay [9] is Metabotropic glutamate receptor 8 (Mus musculus, UniProt P47743). Put plainly: Concentration for half maximal activation of metabotropic glutamate mGluR8 in mouse. In kind it is single protein.
Assay [10] has as its target Metabotropic glutamate receptor 6 (Rattus norvegicus, UniProt P35349). In words: Concentration for half maximal activation of metabotropic glutamate mGluR6 in rat.
Assay [11] addresses Metabotropic glutamate receptor 4 (Homo sapiens, UniProt Q14833). In words: Concentration for half maximal activation of metabotropic glutamate mGluR4a in human.
In assay [12] the target is T2, Metabotropic glutamate receptor 5 (Rattus norvegicus, UniProt P31424). Put plainly: Concentration for half maximal activation of metabotropic glutamate mGluR5a in rat.
Assay [13] deals with T1, Metabotropic glutamate receptor 1. Put plainly: Concentration for half maximal activation of metabotropic glutamate mGluR1b in rat.
The target in assay [14] is T2, Metabotropic glutamate receptor 5. In words: Concentration for half maximal activation of metabotropic glutamate mGluR5b in rat.
For assay [15], the target named is Metabotropic glutamate receptor 5 (Homo sapiens, UniProt P41594). Put plainly: Concentration for half maximal activation of metabotropic glutamate mGluR5a in human.

Chain of Metabotropic glutamate receptor 6 (P35349 whole entry): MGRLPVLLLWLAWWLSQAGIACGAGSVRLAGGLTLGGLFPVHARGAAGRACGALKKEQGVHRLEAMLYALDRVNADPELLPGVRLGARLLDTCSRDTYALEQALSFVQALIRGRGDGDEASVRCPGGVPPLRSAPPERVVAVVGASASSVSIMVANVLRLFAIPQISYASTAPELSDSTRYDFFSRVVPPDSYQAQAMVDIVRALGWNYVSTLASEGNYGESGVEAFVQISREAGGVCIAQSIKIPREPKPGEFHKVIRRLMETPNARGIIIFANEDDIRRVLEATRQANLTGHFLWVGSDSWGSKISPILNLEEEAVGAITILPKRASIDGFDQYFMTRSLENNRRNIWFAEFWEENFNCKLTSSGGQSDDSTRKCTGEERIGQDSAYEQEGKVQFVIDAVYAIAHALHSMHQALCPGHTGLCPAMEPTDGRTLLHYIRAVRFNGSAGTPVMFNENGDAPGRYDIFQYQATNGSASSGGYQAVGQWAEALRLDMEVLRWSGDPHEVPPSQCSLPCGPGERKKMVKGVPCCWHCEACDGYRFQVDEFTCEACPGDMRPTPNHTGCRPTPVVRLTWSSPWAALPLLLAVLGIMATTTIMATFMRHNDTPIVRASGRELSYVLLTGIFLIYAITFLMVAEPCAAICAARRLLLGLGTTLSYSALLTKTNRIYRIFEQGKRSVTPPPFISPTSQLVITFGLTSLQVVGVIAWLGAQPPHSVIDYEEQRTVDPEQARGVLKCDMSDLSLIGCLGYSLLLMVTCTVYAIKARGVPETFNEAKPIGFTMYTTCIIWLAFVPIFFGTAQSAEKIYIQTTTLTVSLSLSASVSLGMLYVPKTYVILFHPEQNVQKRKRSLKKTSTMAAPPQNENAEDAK
T2 sequence (P31424 whole entry): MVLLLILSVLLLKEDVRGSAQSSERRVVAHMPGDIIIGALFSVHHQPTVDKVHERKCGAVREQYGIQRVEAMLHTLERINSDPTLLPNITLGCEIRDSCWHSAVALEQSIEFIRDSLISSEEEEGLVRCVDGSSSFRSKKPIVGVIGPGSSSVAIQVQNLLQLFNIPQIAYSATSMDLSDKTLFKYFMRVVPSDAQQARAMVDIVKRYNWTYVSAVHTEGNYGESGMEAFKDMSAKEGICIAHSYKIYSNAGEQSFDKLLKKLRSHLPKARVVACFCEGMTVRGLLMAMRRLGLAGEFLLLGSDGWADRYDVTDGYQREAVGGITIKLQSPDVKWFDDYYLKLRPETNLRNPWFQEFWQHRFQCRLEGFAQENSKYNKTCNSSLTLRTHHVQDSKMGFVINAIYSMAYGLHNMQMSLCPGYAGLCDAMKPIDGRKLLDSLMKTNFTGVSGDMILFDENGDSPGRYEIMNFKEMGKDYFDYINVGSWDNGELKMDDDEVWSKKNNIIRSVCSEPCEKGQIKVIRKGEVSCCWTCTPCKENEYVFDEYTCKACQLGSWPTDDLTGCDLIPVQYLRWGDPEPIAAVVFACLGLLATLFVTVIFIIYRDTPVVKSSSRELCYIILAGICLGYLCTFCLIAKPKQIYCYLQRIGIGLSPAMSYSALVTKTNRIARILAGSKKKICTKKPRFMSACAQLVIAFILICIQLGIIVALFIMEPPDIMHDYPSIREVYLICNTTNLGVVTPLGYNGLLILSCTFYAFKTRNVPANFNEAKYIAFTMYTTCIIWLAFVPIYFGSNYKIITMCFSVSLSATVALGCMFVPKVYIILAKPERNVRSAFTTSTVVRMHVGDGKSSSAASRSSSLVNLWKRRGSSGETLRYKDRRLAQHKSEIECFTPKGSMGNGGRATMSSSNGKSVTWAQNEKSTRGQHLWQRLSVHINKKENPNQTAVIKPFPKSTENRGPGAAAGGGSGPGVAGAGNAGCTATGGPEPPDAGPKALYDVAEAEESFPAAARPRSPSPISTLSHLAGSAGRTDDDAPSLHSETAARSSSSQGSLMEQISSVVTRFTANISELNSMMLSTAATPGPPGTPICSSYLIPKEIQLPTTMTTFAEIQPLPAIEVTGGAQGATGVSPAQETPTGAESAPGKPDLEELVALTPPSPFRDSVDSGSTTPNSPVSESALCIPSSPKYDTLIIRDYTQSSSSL
Chain of Metabotropic glutamate receptor 8 (P47743 whole entry): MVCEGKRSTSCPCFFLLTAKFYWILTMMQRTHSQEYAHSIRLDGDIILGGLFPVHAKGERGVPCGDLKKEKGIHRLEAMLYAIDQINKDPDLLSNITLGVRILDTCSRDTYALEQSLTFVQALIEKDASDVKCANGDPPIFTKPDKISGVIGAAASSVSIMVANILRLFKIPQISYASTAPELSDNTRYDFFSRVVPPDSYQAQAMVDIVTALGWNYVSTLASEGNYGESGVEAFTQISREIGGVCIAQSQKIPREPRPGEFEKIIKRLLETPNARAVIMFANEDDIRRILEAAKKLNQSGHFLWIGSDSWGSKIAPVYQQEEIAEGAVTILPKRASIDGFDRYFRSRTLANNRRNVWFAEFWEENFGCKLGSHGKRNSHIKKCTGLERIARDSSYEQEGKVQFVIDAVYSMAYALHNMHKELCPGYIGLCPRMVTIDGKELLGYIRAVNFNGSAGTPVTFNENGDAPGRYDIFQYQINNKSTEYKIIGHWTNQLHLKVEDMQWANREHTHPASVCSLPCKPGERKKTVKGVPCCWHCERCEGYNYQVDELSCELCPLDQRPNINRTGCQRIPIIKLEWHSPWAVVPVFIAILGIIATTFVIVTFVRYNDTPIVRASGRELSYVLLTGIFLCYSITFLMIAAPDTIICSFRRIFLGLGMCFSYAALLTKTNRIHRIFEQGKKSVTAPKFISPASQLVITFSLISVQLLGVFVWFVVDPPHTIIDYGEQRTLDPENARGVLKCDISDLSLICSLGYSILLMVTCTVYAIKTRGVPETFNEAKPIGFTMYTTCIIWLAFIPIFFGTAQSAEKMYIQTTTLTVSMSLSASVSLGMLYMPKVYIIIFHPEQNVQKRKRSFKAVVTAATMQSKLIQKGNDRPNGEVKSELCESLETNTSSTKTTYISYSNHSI
Chain of Metabotropic glutamate receptor 7 (Rattus norvegicus, UniProt P35400) (P35400 whole entry): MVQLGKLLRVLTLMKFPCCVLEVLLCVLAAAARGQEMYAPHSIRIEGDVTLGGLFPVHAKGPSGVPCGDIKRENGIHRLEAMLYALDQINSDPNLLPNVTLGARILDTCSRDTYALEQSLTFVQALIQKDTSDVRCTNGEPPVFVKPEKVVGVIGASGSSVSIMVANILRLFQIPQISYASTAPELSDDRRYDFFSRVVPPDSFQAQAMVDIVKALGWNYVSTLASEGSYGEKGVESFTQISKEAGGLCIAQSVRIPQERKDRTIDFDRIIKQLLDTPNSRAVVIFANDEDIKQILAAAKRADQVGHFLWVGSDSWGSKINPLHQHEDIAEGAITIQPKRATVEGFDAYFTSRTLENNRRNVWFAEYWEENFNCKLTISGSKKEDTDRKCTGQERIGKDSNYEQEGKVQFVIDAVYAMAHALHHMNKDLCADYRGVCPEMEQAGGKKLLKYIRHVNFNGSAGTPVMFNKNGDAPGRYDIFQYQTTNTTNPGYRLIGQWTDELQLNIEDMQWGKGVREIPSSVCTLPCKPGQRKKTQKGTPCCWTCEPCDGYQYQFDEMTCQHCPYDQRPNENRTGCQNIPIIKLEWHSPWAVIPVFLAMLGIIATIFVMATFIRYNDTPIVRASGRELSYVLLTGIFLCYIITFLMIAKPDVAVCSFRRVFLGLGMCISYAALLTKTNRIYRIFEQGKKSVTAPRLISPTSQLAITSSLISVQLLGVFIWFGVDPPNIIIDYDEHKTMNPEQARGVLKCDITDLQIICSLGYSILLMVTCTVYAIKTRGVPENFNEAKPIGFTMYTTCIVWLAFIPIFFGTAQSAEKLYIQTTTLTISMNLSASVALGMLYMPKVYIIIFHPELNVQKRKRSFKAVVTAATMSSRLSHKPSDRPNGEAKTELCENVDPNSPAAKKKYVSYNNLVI
Chain of Metabotropic glutamate receptor 2 (Rattus norvegicus, UniProt P31421) (P31421 whole entry): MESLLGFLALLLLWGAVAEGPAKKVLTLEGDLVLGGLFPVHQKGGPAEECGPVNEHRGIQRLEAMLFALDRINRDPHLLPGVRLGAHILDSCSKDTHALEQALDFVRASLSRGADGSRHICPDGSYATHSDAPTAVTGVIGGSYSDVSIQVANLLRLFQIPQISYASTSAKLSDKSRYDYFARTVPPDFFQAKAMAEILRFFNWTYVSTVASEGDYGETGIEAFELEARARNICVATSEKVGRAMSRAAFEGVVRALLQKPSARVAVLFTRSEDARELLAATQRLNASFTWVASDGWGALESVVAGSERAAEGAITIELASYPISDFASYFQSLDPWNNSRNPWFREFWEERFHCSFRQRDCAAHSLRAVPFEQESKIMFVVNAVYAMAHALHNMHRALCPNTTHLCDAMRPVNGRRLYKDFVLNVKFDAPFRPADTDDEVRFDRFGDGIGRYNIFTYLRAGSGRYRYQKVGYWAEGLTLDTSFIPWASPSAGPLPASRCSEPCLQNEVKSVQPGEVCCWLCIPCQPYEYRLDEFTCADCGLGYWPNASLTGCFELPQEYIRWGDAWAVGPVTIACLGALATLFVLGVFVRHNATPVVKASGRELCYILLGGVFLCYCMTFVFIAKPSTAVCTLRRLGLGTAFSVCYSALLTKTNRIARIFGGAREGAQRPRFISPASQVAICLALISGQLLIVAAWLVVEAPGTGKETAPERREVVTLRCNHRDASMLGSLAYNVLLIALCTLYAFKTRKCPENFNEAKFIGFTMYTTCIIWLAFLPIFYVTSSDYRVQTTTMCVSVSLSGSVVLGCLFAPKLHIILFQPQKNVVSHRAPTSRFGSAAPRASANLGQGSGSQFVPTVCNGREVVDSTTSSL
Chain of Metabotropic glutamate receptor 7 (Homo sapiens, UniProt Q14831) (Q14831 whole entry): as the sequence (P35400 whole entry) above, with G5R, V27A, H454N, T488S, S520A, N578D counted along it

Usually EC50 stands for the concentration giving half of the maximal effect. For `N[C@H](C(=O)O)[C@H]1C[C@@H]1C(=O)O`, the EC50 in assay [1] is 0.75 µM; in assay [2] it was 0.38 µM.
Regarding `N[C@H](C(=O)O)C1[C@@H](C(=O)O)[C@@H]1C(=O)O` (stereo partly specified), the EC50 in assay [3] was over 1000 µM; in [4], over 1000 µM; in assay [1] it was 0.3 µM; in assay [5], 0.3 µM.
As for `N[C@@H](CCP(=O)(O)O)C(=O)O`, the half-maximal effective concentration (EC50) in assay [6] is 200 µM; in assay [4], 0.5 µM and 1.2 µM; in assay [1], over 1000 µM; in [7], over 1000 µM; in assay [8], 160 µM and 500 µM; in [9] it was 0.4 µM. In addition, the EC50 in [2] was over 1000 µM; in assay [10] it was 0.9 µM; in assay [11] it was 0.2 µM.
With `N[C@@]1(C(=O)O)CC[C@@H](C(=O)O)C1`, the EC50 in assay [6] is over 1000 µM; in assay [12] it was 50 µM; in assay [4] it was > 100 µM and 39 µM; in assay [1], 5 µM and 7.7 µM; in assay [8], over 1000 µM; in assay [5], 8 µM. Also, the 50% effective concentration (EC50) in assay [9] was over 100 µM; in assay [2], 12.1 µM; in assay [10], over 200 µM.
Take `N[C@@H](COP(=O)(O)O)C(=O)O` [DEXFOSFOSERINE]: the EC50 in assay [6] was under 200 µM; in [4], 4 µM; in assay [8], 160 µM; in assay [10], 2.7 µM; in assay [11] it was 1.3 µM.
For the compound `N[C@@H](CCC(=O)O)C(=O)O` [GLUTAMIC ACID], the EC50 in [6] is over 500 µM; in assay [4], 5 µM and 3.2 µM; in [8] it was 1000 µM and 1300 µM; in [5] it was 3 µM; in assay [9], 0.022 µM; in assay [10] it was 16 µM.
With `N[C@H](C(=O)O)c1cc(=O)[nH]o1` [IBOTENIC ACID], the EC50 in assay [3] is 6 µM; in [12] it was 10 µM and 8 µM; in assay [4] it was 590 µM; in assay [13], 44 µM; in assay [7], 60 µM; in assay [5], 10 µM. For the same compound, the figures for the EC50 in assay [14], in assay [9] and in assay [10] were 8 µM, over 100 µM and 1000 µM, respectively.
Consider `N[C@@H](Cn1oc(=O)[nH]c1=O)C(=O)O` [QUISQUALATE], for which the EC50 is over 1000 µM in assay [6]; 0.3 µM and 0.2 µM in [12]; > 100 µM and 129 µM in [4]; over 1000 µM in assay [1]; over 1000 µM in [8]; 40 µM in [5]. Moreover, the EC50 in [14] was 0.2 µM; in [15], 0.15 µM; in [9], over 100 µM; in assay [2] it was over 1000 µM; in assay [10] it was 1000 µM; in assay [11] it was over 500 µM.
